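Tested at 5 concentrations; 48 h exposure; 96-well plates; endpoints linearly interpolated, else capped at highest concentration. Abbreviation: GI50, concentration required for 50% inhibition of growth.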 Active and inactive are the calls of the source. No stated cut-off is given here; in the data, active = GI50 up to about 1.1 µM and inactive = higher.
Assays:
Test in all cases: NCI anticancer screen, dose series, 48 h
IGROV-1 = tested on: IGROV-1
MCF7 = tested on: MCF7
SW-620 = tested on: SW-620
Hs-578T = tested on: Hs-578T
CAKI-1 = tested on: CAKI-1
OVCAR-4 = tested on: OVCAR-4
HL-60 = tested on: HL-60
OVCAR-8 = tested on: OVCAR-8
COLO 205 = tested on: COLO 205
BT-549 = tested on: BT-549
HOP-92 = tested on: HOP-92
786-0 = tested on: 786-0
NCI-H460 = tested on: NCI-H460
SNB-75 = tested on: SNB-75
TK-10 = tested on: TK-10
SK-MEL-5 = tested on: SK-MEL-5
SF-295 = tested on: SF-295
SK-MEL-28 = tested on: SK-MEL-28
NCI-H23 = tested on: NCI-H23
UACC-62 = tested on: UACC-62

Row | SMILES | GI50 (IGROV-1) | GI50 (MCF7) | GI50 (SW-620) | GI50 (Hs-578T) | GI50 (CAKI-1) | GI50 (OVCAR-4) | GI50 (HL-60) | GI50 (OVCAR-8) | GI50 (COLO 205) | GI50 (BT-549) | GI50 (HOP-92) | GI50 (786-0) | GI50 (NCI-H460) | GI50 (SNB-75) | GI50 (TK-10) | GI50 (SK-MEL-5) | GI50 (SF-295) | GI50 (SK-MEL-28) | GI50 (NCI-H23) | GI50 (UACC-62)
1 | O=C1NC(=O)C(c2c[nH]c3ccccc23)=C1c1cnc[nH]1 | > 100 µM (inactive) | 34.5 µM (inactive) | 57.3 µM (inactive) | 64.3 µM (inactive) | > 100 µM (inactive) | > 100 µM (inactive) | 26.9 µM (inactive) | > 100 µM (inactive) | 49.5 µM (inactive) | 46.3 µM (inactive) | > 100 µM (inactive) | > 100 µM (inactive) | 55.3 µM (inactive) | > 100 µM (inactive) | 89.5 µM (inactive) | 22.5 µM (inactive) | > 100 µM (inactive) | > 100 µM (inactive) |  | 
2 | CCc1nc(Cl)nc(Cl)c1Cl | 3.72 µM (inactive) | 0.403 µM (active) | 0.467 µM (active) | 2.6 µM (inactive) | 0.193 µM (active) | 0.553 µM (active) | 1.36 µM (inactive) | 1.04 µM (active) | 0.284 µM (active) | 2.01 µM (inactive) | 2.11 µM (inactive) | 0.415 µM (active) | 7.98 µM (inactive) | 5.53 µM (inactive) | 6.93 µM (inactive) | 2.56 µM (inactive) | 8.57 µM (inactive) | 4.95 µM (inactive) | 1.08 µM (active) | 6.44 µM (inactive)
3 | COc1ccc(/C=C2\CC3C4CC=C5C[C@@H](O)CC[C@]5(C)C4CC[C@]3(C)C2=O)cc1OC (some centres undefined) | 75.3 µM (inactive) | 23.3 µM (inactive) | 65.6 µM (inactive) | 36.5 µM (inactive) | 29.2 µM (inactive) | 21.8 µM (inactive) | 13.1 µM (inactive) | 43.3 µM (inactive) | 16.3 µM (inactive) | 44.6 µM (inactive) | 74.6 µM (inactive) | 40.3 µM (inactive) | 17.3 µM (inactive) | 16 µM (inactive) | 32.3 µM (inactive) | 7.05 µM (inactive) | 11.4 µM (inactive) | 81.1 µM (inactive) | 42.6 µM (inactive) | 42.9 µM (inactive)
4 | N#CC1C(=O)NC(=O)C(C#N)C1c1ccc(Cl)c(Cl)c1 (centres undefined) | 18.1 µM (inactive) | 34.4 µM (inactive) | 16.7 µM (inactive) | 23.1 µM (inactive) | 22.4 µM (inactive) | 81.8 µM (inactive) | 35.4 µM (inactive) | 37.4 µM (inactive) | > 100 µM (inactive) | 33.3 µM (inactive) | 37.4 µM (inactive) | 20.1 µM (inactive) | 30.1 µM (inactive) | 25.2 µM (inactive) | 35.3 µM (inactive) | 20.9 µM (inactive) | 40.3 µM (inactive) | 30.6 µM (inactive) | 21.4 µM (inactive) | 
5 | C=CCN1C(N)=C(C#N)C(C#N)(C#N)C1CCC (centres undefined) | > 100 µM (inactive) | > 100 µM (inactive) | > 100 µM (inactive) | > 100 µM (inactive) | > 100 µM (inactive) | > 100 µM (inactive) | > 100 µM (inactive) | > 100 µM (inactive) | > 100 µM (inactive) | > 100 µM (inactive) | 52.1 µM (inactive) | > 100 µM (inactive) | > 100 µM (inactive) | > 100 µM (inactive) | > 100 µM (inactive) | 81.7 µM (inactive) | > 100 µM (inactive) |  | > 100 µM (inactive) | > 100 µM (inactive)
6 | CSc1ncc2c(n1)-c1ccccc1OC2 | 34.4 µM (inactive) | 43.1 µM (inactive) | 62.2 µM (inactive) | 26.5 µM (inactive) | 19.4 µM (inactive) | 61 µM (inactive) | 38.9 µM (inactive) | 79.1 µM (inactive) | 92.3 µM (inactive) | 43 µM (inactive) | 25.6 µM (inactive) | 72.6 µM (inactive) | 42.9 µM (inactive) | 43.6 µM (inactive) | 45.1 µM (inactive) | 53.1 µM (inactive) | 94.2 µM (inactive) |  | 84.3 µM (inactive) | 78.2 µM (inactive)
7 | O=P1(N(CCCl)CCCl)Oc2ccc(Cl)cc2C(C(Cl)(Cl)Cl)c2cc(Cl)ccc2O1 (centres undefined) |  | 10.4 µM (inactive) | 11.2 µM (inactive) | 13.6 µM (inactive) | 16.5 µM (inactive) | 20.7 µM (inactive) | 4.26 µM (inactive) | 25.5 µM (inactive) | 12.9 µM (inactive) | 29.8 µM (inactive) | 3.9 µM (inactive) | 12.4 µM (inactive) | 8.28 µM (inactive) | 10.9 µM (inactive) | 26.2 µM (inactive) | 11.4 µM (inactive) | 3.68 µM (inactive) | 35.2 µM (inactive) | 12.8 µM (inactive) | 12.6 µM (inactive)
8 | O=C(CCl)N1CCCCC1C1(c2cc3ccccc3[nH]2)OCCO1 (centres undefined) | 0.198 µM (active) | 2.56 µM (inactive) | 4.19 µM (inactive) | 3.3 µM (inactive) | 0.828 µM (active) | 1.73 µM (inactive) | 0.685 µM (active) | 4.24 µM (inactive) | 2.94 µM (inactive) | 2.05 µM (inactive) | 1 µM (active) | 0.869 µM (active) | 9.71 µM (inactive) | 2.65 µM (inactive) | 3.5 µM (inactive) | 3.08 µM (inactive) | 3.77 µM (inactive) | 11.6 µM (inactive) | 2.21 µM (inactive) | 3.14 µM (inactive)
9 | O=c1c(Sc2ncccn2)c(Sc2ncccn2)cnn1CCl | 1.17 µM (inactive) | 2.88 µM (inactive) | 2.4 µM (inactive) | 14.5 µM (inactive) | 1.98 µM (inactive) | 2.15 µM (inactive) | 2.04 µM (inactive) | 2.08 µM (inactive) | 1.76 µM (inactive) | 10.2 µM (inactive) | 2.59 µM (inactive) | 1.87 µM (inactive) | 14.7 µM (inactive) | 16.4 µM (inactive) | 0.398 µM (active) | 6.87 µM (inactive) | 15.3 µM (inactive) | 3.41 µM (inactive) | 4.67 µM (inactive) | 5.75 µM (inactive)
10 | CCN(CC)CCO/N=C1\CC[C@H]2[C@@H]3CCc4cc(OC)ccc4[C@H]3CC[C@]12C | 3.26 µM (inactive) | 3.66 µM (inactive) | 1.72 µM (inactive) | 2.31 µM (inactive) | 0.74 µM (active) | 9.08 µM (inactive) | 0.885 µM (active) | 2.6 µM (inactive) | 1.57 µM (inactive) | 4.56 µM (inactive) | 2.45 µM (inactive) | 1.59 µM (inactive) | 0.804 µM (active) | 2.44 µM (inactive) | 6.44 µM (inactive) | 1.73 µM (inactive) | 1.83 µM (inactive) | 0.628 µM (active) | 5.09 µM (inactive) | 0.82 µM (active)
11 | C=CC(C)(C)c1cc([C@@H]2COc3cc(O)ccc3C2=O)c(O)c(O)c1OC |  | 17.4 µM (inactive) | 26.7 µM (inactive) | 39 µM (inactive) | 13.2 µM (inactive) | 16.9 µM (inactive) | 22.7 µM (inactive) | 16.4 µM (inactive) | 26.7 µM (inactive) | 18 µM (inactive) | 18.8 µM (inactive) | 14.3 µM (inactive) | 66.4 µM (inactive) | 27.4 µM (inactive) | > 100 µM (inactive) | 19.7 µM (inactive) | 39.4 µM (inactive) | 27.8 µM (inactive) | 17.1 µM (inactive) | 18.1 µM (inactive)
12 | Cc1nc(OCc2ccccc2)c2ncn(CCO)c2n1 | > 100 µM (inactive) | > 100 µM (inactive) | > 100 µM (inactive) | > 100 µM (inactive) | > 100 µM (inactive) | > 100 µM (inactive) | > 100 µM (inactive) |  | > 100 µM (inactive) | > 100 µM (inactive) | 51.8 µM (inactive) | > 100 µM (inactive) | > 100 µM (inactive) |  | > 100 µM (inactive) | > 100 µM (inactive) | > 100 µM (inactive) | > 100 µM (inactive) | > 100 µM (inactive) | > 100 µM (inactive)
13 | CC(=O)OC1/C(=C/c2ccc([N+](=O)[O-])cc2)C[C@H]2[C@@H]3CC=C4C[C@@H](OC(C)=O)CC[C@]4(C)[C@H]3CC[C@]12C (some centres undefined) | > 100 µM (inactive) | > 100 µM (inactive) | > 100 µM (inactive) | 74.5 µM (inactive) | > 48.9 µM (inactive) | > 96.4 µM (inactive) | 2.61 µM (inactive) | > 100 µM (inactive) | > 54.6 µM (inactive) | > 100 µM (inactive) | 34.4 µM (inactive) | 70.6 µM (inactive) | > 100 µM (inactive) |  | 29.6 µM (inactive) | > 100 µM (inactive) | > 73.6 µM (inactive) | > 100 µM (inactive) | > 100 µM (inactive) | > 100 µM (inactive)
14 | FC(F)(F)c1ccc2c(c1)nc(Cc1ccc(Cl)c(Cl)c1)n2CC1CCCN2CCCCC12 (centres undefined) | 21.2 µM (inactive) | 17.5 µM (inactive) | 34.8 µM (inactive) | 10.9 µM (inactive) | 29.7 µM (inactive) | 74.5 µM (inactive) | 17.5 µM (inactive) | 35.8 µM (inactive) | 16.1 µM (inactive) | 28.6 µM (inactive) | 22.9 µM (inactive) | 16.2 µM (inactive) | 19.6 µM (inactive) | 28.6 µM (inactive) | 19.1 µM (inactive) | 16.4 µM (inactive) | 22.9 µM (inactive) | 21.1 µM (inactive) |  | 15.9 µM (inactive)
